In US10730868B2, “Bicyclic heteroaryl substituted compounds” (BRISTOL-MYERS SQUIBB COMPANY, priority 2016, dated 2020):

What follows are compounds tested against PAR4 (Homo sapiens (Human), UniProt Q96RI0) (assay: PAR4 FLIPR assay (antagonism of agonist-peptide-induced calcium mobilization)). Settings: H-Ala-Phe(4-F)-Pro-Gly-Trp-Leu-Val-Lys-Asn-Gly-NH2-induced intracellular calcium mobilization, PAR4-expressing HEK293 cells; read-out: PAR4 FLTPR assay (IC50).
Chain of PAR4 (Q96RI0 18-385): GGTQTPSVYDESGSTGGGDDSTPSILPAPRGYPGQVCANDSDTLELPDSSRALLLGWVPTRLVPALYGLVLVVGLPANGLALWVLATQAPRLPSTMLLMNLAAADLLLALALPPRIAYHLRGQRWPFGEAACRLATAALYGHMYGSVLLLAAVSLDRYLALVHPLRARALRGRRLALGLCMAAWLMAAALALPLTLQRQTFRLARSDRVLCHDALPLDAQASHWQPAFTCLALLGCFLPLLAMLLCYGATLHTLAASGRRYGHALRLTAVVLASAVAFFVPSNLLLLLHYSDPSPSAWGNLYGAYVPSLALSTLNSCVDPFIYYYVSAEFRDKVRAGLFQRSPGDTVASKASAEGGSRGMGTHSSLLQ
Format: cell-based
Excerpt: The Fluorometric Imaging Plate Reader (FLIPR) assay is an exemplary in vitro assay for measuring the activity of the PAR4 antagonists of the present invention. In this assay, intracellular calcium mobilization is induced in PAR4 expressing cells by a PAR4 agonist and calcium mobilization is monitored.
HEK293 cells stably expressing PAR4 were generated by a standard method of transfection of human PAR4 (F2R23) cDNA expression vector and selected based on PAR4 protein expression or mRNA expression. […] These cells also express endogenous PAR1 and can elicit calcium signal upon stimulation with PAR1 agonist peptide. Therefore, the same cells were also used to determine selectivity against PAR1 and agonist activity for both receptors. Cells from HEK293 PAR4 Clone 1.2A (BMS Arctic ID 383940) were propagated and used for calcium mobilization studies.
FLIPR-based calcium mobilization assay in HEK293 cells was used to measure PAR4 antagonism agonism, and selectivity against PAR1. The activity of the PAR4 antagonists of the present invention were tested in PAR4 expressing cells by monitoring H-Ala-Phe(4-F)-[…]NH2-induced intracellular calcium mobilization. Counter screens for agonist activity and PAR1 antagonist activity were also performed. Briefly, PAR/PAR4-expressing HEK293 cells were grown in DMEM (Life Technology, Grand Island, N.Y.) containing 10% heat-inactivated FBS, 1% Penicillin-Streptomycin, 10 μg/mL blasticidin, and 100 μg/mL Zeocin at 37° C. with 5% CO2. Cells were plated overnight prior to the experiment in a black 384-well Purecoat Amine clear bottom plate (Becton Dickinson Biosciences, San Jose, Calif.) at 10,000 cells/well in 30 μL growth medium and incubated in a humidified chamber at 37° C. with 5% CO2 overnight. Prior to compound addition, the cell medium was replaced with 40 μL of 1× calcium and magnesium-containing Hank's Balanced Saline Solution (HBSS) (with 20 mM HEPES) and 1:1000 diluted fluorescent calcium indicator (Codex Biosolutions, Gaithersburg, Md.). After a 30 minute incubation period at 37° C. and a further 30 minute incubation and equilibration period at room temperature, 20 μL test compound (diluted in 1×HBSS buffer) was added at various concentrations at 0.17% dimethyl sulfoxide (DMSO) final concentration. Changes in fluorescence intensity were measured using a Functional Drug Screening System (FDSS, Hamamatsu, Japan) to determine agonist activities. The cells were then incubated for 30 minutes at room temperature followed by addition of 20 μL of agonist peptide for antagonist activity measurement. […] Compound potency was derived from 11-point concentration-response curves.
`COc1cnc2c(-c3nc4cc(F)c(O[C@H]5CC(F)(F)CC[C@H]5OC(=O)Nc5cnc(OCCO)nc5)cc4s3)cc(C)cc2c1` [Example 15, (1R, 2S)-4,4-difluoro-2-((5-fluoro-2-(3-methoxy-6-methylquinolin-8-yl)benzo[d]thiazol-6-yl)oxy)cyclohexyl (2-(2-hydroxyethoxy)pyrimidin-5-yl)carbamate] gave an IC50 of 0.77 nM.
Compound `COc1cnc2c(-c3nc4cc(F)c(O[C@H]5CCC[C@H]5OC(N)=O)cc4s3)cc(C)cc2n1` [Example 39] has an IC50 of 400 nM.
`CCOc1cnc2c(-c3nc4cc(F)c(O[C@@H]5CC[C@@H]5OC(=O)Nc5cnc(OCCO)nc5)cc4s3)cc(C)cc2n1` [Example 75] gave an IC50 of 5.9 nM.
In the case of `COc1cnc2c(-c3nc4cc(F)c(O[C@H]5CCC[C@H]5OC(=O)NC(C)C)cc4s3)cc(C)cc2n1` [Example 29], the IC50 is reported as 12 nM.
In the case of `COc1cnc2c(-c3nc4cc(F)c(O[C@H]5CC[C@H]5OC(=O)Nc5cnc(OC[C@@H](C)O)nc5)cc4s3)cc(C)cc2n1` [Example 63], the IC50 is reported as 7.4 nM.
Compound `COc1cnc2c(-c3nc4cc(F)c(O[C@H]5CC(F)(F)CC[C@H]5OC(=O)Nc5cnc(OCCO)nc5)cc4s3)cc(C)cc2n1` [Example 1] has an IC50 of 1.6 nM.
In the case of `COc1cnc2c(-c3nc4cc(F)c(O[C@@H]5CCC[C@@H]5OC(=O)Nc5cnc(C)nc5)cc4s3)cc(C)cc2n1` [Example 27], the IC50 is reported as 58 nM.
Work on `COc1cnc2c(-c3nc4cc(F)c(O[C@@H]5CC[C@@H]5OC(=O)Nc5cnc(C)nc5)cc4s3)cc(C)cc2n1` [Example 67] yielded an IC50 of 0.99 nM.
Compound `COc1cnc2c(-c3nc4cc(F)c(O[C@H]5CC(F)(F)CC[C@H]5OC(=O)Nc5ccnnc5)cc4s3)cc(C)cc2n1` [Example 9] has an IC50 of 12 nM.
In the case of `COc1cnc2c(-c3nc4cc(F)c(O[C@H]5CC[C@H]5OC(=O)Nc5cnc(C)nc5)cc4s3)cc(C)cc2n1` [Example 69], the IC50 is reported as 1.2 nM.
In the case of `COc1cnc2c(-c3nc4cc(F)c(O[C@H]5CCC[C@H]5OC(=O)Nc5cnc(C)nc5)cc4s3)cc(C)cc2n1` [Example 37], the IC50 is reported as 4 nM.
`COc1cnc2c(-c3nc4cc(F)c(O[C@H]5CC(F)(F)CC[C@H]5OC(=O)Nc5ccc(CO)nc5)cc4s3)cc(C)cc2n1` [Example 6] was tested, and the IC50 was 0.76 nM.
For `CNC(=O)c1ccc(NC(=O)O[C@@H]2CCC[C@@H]2Oc2cc3sc(-c4cc(C)cc5nc(OC)cnc45)nc3cc2F)cn1` [Example 48, (1R,2S)-2-((5-fluoro-2-(2-methoxy-7-methylquinoxalin-5-yl)benzo[d]thiazol-6-yl)oxy)cyclopentyl (6-(methylcarbamoyl)pyridin-3-yl)carbamate], the IC50 was 2.4 nM.

Same assay, conditions: H-Ala-Phe(4-F)-[…]NH2-induced intracellular calcium mobilization, PAR4-expressing HEK293 cells; read-out: PAR4 FLTPR assay (IC50)
`COc1ccc(NC(=O)O[C@@H]2CCCC[C@H]2Oc2cc3sc(-c4cc(C)cc5nc(OC)cnc45)nc3cc2F)cn1` (racemic) [Example 53, rac-trans-2-((5-fluoro-2-(2-methoxy-7-methylquinoxalin-5-yl)benzo[d]thiazol-6-yl)oxy)cyclohexyl (6-methoxypyridin-3-yl)carbamate] gave an IC50 of 94 nM.
`COc1cnc2c(-c3nc4cc(F)c(OC5CCC[C@@H]5O)cc4s3)cc(C)cc2n1` (mixture of isomers) [Example 21, rac-cis-2-((5-fluoro-2-(2-methoxy-7-methylquinoxalin-5-yl)benzo[c]thiazol-6-yl)oxy)cyclopentanol] was tested, and the IC50 was 470 nM.
`COc1ccc(NC(=O)O[C@@H]2CCC[C@@H]2Oc2cc3sc(-c4cc(C)cc5nc(OC)cnc45)nc3cc2F)cn1` (racemic) [Example 33] gave an IC50 of 3.1 nM.
Work on `COc1cnc2c(-c3nc4cc(F)c(O[C@@H]5CCC(C)(C)[C@@H]5O)cc4s3)cc(C)cc2n1` (racemic) [Example 103, rac-cis-5-((5-fluoro-2-(2-methoxy-7-methyl)quinoxalin-5-yl)benzo[d]thiazol-6-yl)oxy)-2,2-dimethylcyclopentanol] yielded an IC50 of 20 nM.
For `COc1cnc2c(-c3nc4cc(F)c(O[C@H]5CCCC[C@H]5OC(=O)Nc5cccnc5)cc4s3)cc(C)cc2n1` (single isomer, unassigned; enantiomer 1) [Example 58, cis-2-((5-fluoro-2-(2-methoxy-7-methylquinoxalin-5-yl)benzo[d]thiazol-6-yl)oxy)cyclohexyl pyridin-3-ylcarbamate (Enantiomer 1)], the IC50 was 1.4 nM.
With `COc1ccc(NC(=O)O[C@@H]2CCC[C@@H]2Oc2cc3sc(-c4cc(C)cc5nc(OC)cnc45)nc3cc2F)cn1` [Example 22, (1R,2S)-2-((5-fluoro-2-(2-methoxy-7-methylquinoxalin-5-yl)benzo[d]thiazol-6-yl)oxy)cyclopentyl (6-methoxy pyridin-3-yl)carbamate] the IC50 was 2.4 nM.
For `COc1cnc2c(-c3nc4cc(F)c(O[C@@H]5CC[C@@H]5OC(=O)Nc5cnc(OCCO)nc5)cc4s3)cc(Cl)cc2c1` (racemic) [Example 79], the IC50 was 0.9 nM.
In the case of `COc1ccc(NC(=O)O[C@H]2COC[C@H]2Oc2cc3sc(-c4cc(C)cc5nc(OC)cnc45)nc3cc2F)cn1` (racemic) [Example 87, rac-cis-4-((5-fluoro-2-(2-methoxy-7-methylquinoxalin-5-yl)benzo[d]thiazol-6-yl)oxy) tetrahydrofuran-3-yl (6-methoxypyridin-3-yl)carbamate], the IC50 is reported as 6.2 nM.
Work on `COc1cnc2c(-c3nc4cc(F)c(O[C@@H]5CCC[C@@H]5OC(=O)Nc5cncc(C#N)c5)cc4s3)cc(C#N)cc2n1` (racemic) [Example 45, rac-cis-2-((2-(7-cyano-2-methoxyquinoxalin-5-yl)-5-fluorobenzo[d]thiazol-6-yl)oxy)cyclopentyl (5-cyanopyridin-3-yl)carbamate] yielded an IC50 of 2.2 nM.
Compound `COc1cnc2c(-c3nc4cc(F)c(O[C@@H]5CCC[C@@H]5OC)cc4s3)cc(C)cc2n1` (racemic) [Example 40, rac-5-fluoro-2-(2-methoxy-7-methylquinoxalin-5-yl)-6-((cis-2-methoxycyclopentyl)oxy)benzo[d]thiazole] has an IC50 of 83 nM.
Work on `COc1cnc2c(-c3nc4cc(F)c(OC5CC(F)(F)CC[C@@H]5OC(=O)Nc5cncc(C#N)c5)cc4s3)cc(C)cc2n1` (mixture of isomers) [Example 12] yielded an IC50 of 5.7 nM.
`COc1cnc2c(-c3nc4cc(F)c(OC5CC(F)(F)CC[C@@H]5OC(=O)Nc5cnc(OC)nc5)cc4s3)cc(C)cc2n1` (mixture of isomers) [Example 11] showed an IC50 of 2.8 nM.
For `COc1cnc2c(-c3nc4cc(F)c(O[C@@H]5CN(S(C)(=O)=O)CC[C@@H]5OC(=O)Nc5cnc(C)nc5)cc4s3)cc(C)cc2n1` (racemic) [Example 95, rac-cis-3-((5-fluoro-2-(2-methoxy-7-methylquinoxalin-5-yl)benzo[d]thiazol-6-yl)oxy)-1-(methylsulfonyl)piperidin-4-yl (2-methylpyrimidin-5-yl)carbamate], the IC50 was 72 nM.
`COc1cnc2c(-c3nc4cc(F)c(O[C@@H]5CC[C@@H]5OC(=O)Nc5cnc(C)nc5)cc4s3)cc(Cl)cc2c1` (racemic) [Example 82] showed an IC50 of 1.1 nM.
In the case of `COc1cnc2c(-c3nc4cc(F)c(O[C@@H]5CN(C(=O)C(F)(F)F)CC[C@@H]5OC(=O)Nc5cnc(C)nc5)cc4s3)cc(C)cc2n1` (racemic) [Example 96, rac-cis-3-((5-fluoro-2-(2-methoxy-7-methylquinoxalin-5-yl)benzo[d]thiazol-6-yl)oxy)-1-(2,2,2-trifluoroacetyl)piperidin-4-yl (2-methylpyrimidin-5-yl)carbamate], the IC50 is reported as 44 nM.
`COc1cnc2c(-c3nc4cc(F)c(O[C@@H]5CCC[C@H]5OC)cc4s3)cc(C)cc2n1` (racemic) [Example 42, rac-5-fluoro-2-(2-methoxy-7-methylquinoxalin-5-yl)-6-((trans-2-methoxycyclopentyl)oxy)benzo[d]thiazole] was tested, and the IC50 was 320 nM.
`COc1cnc2c(-c3nc4cc(F)c(O[C@@H]5COC[C@@H]5OC(=O)Nc5cnc(C)nc5)cc4s3)cc(C)cc2n1` (racemic) [Example 86, rac-cis-4-((5-fluoro-2-(2-methoxy-7-methylquinoxalin-5-yl)benzo[d]thiazol-6-yl)oxy) tetrahydrofuran-3-yl (2-methylpyrimidin-5-yl)carbamate] gave an IC50 of 2.7 nM.
With `COc1cnc2c(-c3nc4cc(F)c(O[C@@H]5CC[C@@H]5OC(=O)Nc5cnc(C)nc5)cc4s3)cc(C)cc2n1` (racemic) [Example 61, rac-cis-2-((5-fluoro-2-(2-methoxy-7-methylquinoxalin-5-yl)benzo[d]thiazol-6-yl)oxy) cyclobutyl (2-methylpyrimidin-5-yl)carbamate] the IC50 was 1.3 nM.
With `COc1cnc2c(-c3nc4cc(F)c(OC5CC(F)(F)CC[C@@H]5OC(=O)Nc5cnc(C)nc5)cc4s3)cc(C)cc2n1` (mixture of isomers) [Example 7] the IC50 was 0.67 nM.
